Source: PubChem BioAssay AID256 (DTP/NCI, 2004)
Where “and” joins values, the source holds several entries; their conditions need not be identical. Equal values may be shown once. Inconclusive results and toxic doses are left out. Rule for the calls: active = survival T/C of 150% or more; inactive = T/C below 125% in these data.

Tested on: CD2F1 mice, L1210 leukemia ip, survival T/C
Experiment: NCI In Vivo Anticancer Drug Screen. Data for tumor model L1210 Leukemia (intraperitoneal) in CD2F1 (CDF1) mice
Conditions: higher = longer survival
Procedure, shortened: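 Implant tumor; dose compound or vehicle; measure endpoint in both groups; report treated divided by control.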

[1] = endpoint: mean survival time, dose: 100.0 mg/kg/injection, schedule: Q01DX009 (ip), vehicle: saline with Tween-80
[2] = endpoint: mean survival time, dose: 200.0 mg/kg/injection, schedule: Q01DX009 (ip), vehicle: saline with Tween-80
[3] = endpoint: mean survival time, dose: 400.0 mg/kg/injection, schedule: Q01DX009 (ip), vehicle: saline with Tween-80
[4] = endpoint: mean survival time, dose: 100.0 mg/kg/injection, schedule: Q04DX003 (ip), vehicle: saline with Tween-80
[5] = endpoint: mean survival time, dose: 200.0 mg/kg/injection, schedule: Q04DX003 (ip), vehicle: saline with Tween-80
[6] = endpoint: mean survival time, dose: 400.0 mg/kg/injection, schedule: Q04DX003 (ip), vehicle: saline with Tween-80
[7] = endpoint: mean survival time, dose: 100.0 mg/kg/injection, schedule: Q01DX001 (ip), vehicle: saline with Tween-80
[8] = endpoint: mean survival time, dose: 200.0 mg/kg/injection, schedule: Q01DX001 (ip), vehicle: saline with Tween-80
[9] = endpoint: mean survival time, dose: 400.0 mg/kg/injection, schedule: Q01DX001 (ip), vehicle: saline with Tween-80
[10] = endpoint: mean survival time, dose: 25.0 mg/kg/injection, schedule: Q01DX009 (ip), vehicle: saline
[11] = endpoint: mean survival time, dose: 50.0 mg/kg/injection, schedule: Q01DX009 (ip), vehicle: saline
[12] = endpoint: mean survival time, dose: 100.0 mg/kg/injection, schedule: Q01DX009 (ip), vehicle: saline

Measured: T/C

O=S1(=O)CCCC1C(O)c1ccccc1 (stereo not given)
inactive: endpoint: mean survival time, dose: 100.0 mg/kg/injection, schedule: Q04DX003 (ip), vehicle: other 100 % of control | endpoint: mean survival time, dose: 200.0 mg/kg/injection, schedule: Q04DX003 (ip), vehicle: other 95 % of control | endpoint: mean survival time, dose: 400.0 mg/kg/injection, schedule: Q04DX003 (ip), vehicle: other 95 % of control

O=c1nc(N2CCCC2)ccn1C1OC(CO)C(O)C1O (stereo not given)
inactive: endpoint: median survival time, dose: 12.5 mg/kg/injection, schedule: Q01DX005 (ip), vehicle: water 100 % of control | endpoint: median survival time, dose: 25.0 mg/kg/injection, schedule: Q01DX005 (ip), vehicle: water 101 % of control | endpoint: median survival time, dose: 50.0 mg/kg/injection, schedule: Q01DX005 (ip), vehicle: water 108 % of control | endpoint: median survival time, dose: 100.0 mg/kg/injection, schedule: Q01DX005 (ip), vehicle: water 101 % of control | endpoint: median survival time, dose: 200.0 mg/kg/injection, schedule: Q01DX005 (ip), vehicle: water 104 % of control

O=[N+]([O-])c1ccc(N=C(Cl)N2CCCCC2)cc1
inactive: endpoint: mean survival time, dose: 100.0 mg/kg/injection, schedule: Q01DX001 (ip), vehicle: saline 109 % of control | endpoint: mean survival time, dose: 200.0 mg/kg/injection, schedule: Q01DX001 (ip), vehicle: saline 103 % of control | endpoint: mean survival time, dose: 400.0 mg/kg/injection, schedule: Q01DX001 (ip), vehicle: saline 107 % of control

O=P(O)(O)OCC(O)CF (stereo not given)
inactive: endpoint: mean survival time, dose: 87.5 mg/kg/injection, schedule: Q04DX003 (ip), vehicle: saline 118 % of control

O=C(CC1CCCCC1)N/N=C/c1cccc([N+](=O)[O-])c1
inactive: [1] 90 % of control | [2] 93 % of control | [3] 90 % of control

CC(=O)c1cccc(NS(=O)(=O)c2ccc(C)cc2)c1
inactive: [4] 97 % of control | [5] 99 % of control | [6] 99 % of control

Nc1nc2nc(-c3ccccc3)c(-c3ccccc3)nc2c(=O)[nH]1
inactive: [1] 96 % of control | [2] 94 % of control | [3] 97 % of control

Cc1cc(N2C(=O)CSC2=S)ccc1Br
inactive: [7] 95 % of control | [8] 97 % of control | [9] 100 % of control

NC(CSC1(c2cccc3ccccc23)c2ccccc2-c2ccccc21)C(=O)O (stereo not given)
inactive: [10] 94 % of control | [11] 96 % of control | [12] 96 % of control | endpoint: mean survival time, dose: 200.0 mg/kg/injection, schedule: Q01DX009 (ip), vehicle: saline 94 % of control | endpoint: mean survival time, dose: 400.0 mg/kg/injection, schedule: Q01DX009 (ip), vehicle: saline 94 % of control

CC(=O)N(C)c1ccc(Nc2cc(C)[nH]c3ccc4ncnc4c23)cc1
active: endpoint: median survival time, dose: 67.0 mg/kg/injection, schedule: Q01DX005 (ip), vehicle: saline 156 % of control and 164 % of control | endpoint: median survival time, dose: 100.0 mg/kg/injection, schedule: Q01DX005 (ip), vehicle: saline 160 % of control
inactive: endpoint: mean survival time, dose: 6.25 mg/kg/injection, schedule: Q01DX009 (ip), vehicle: saline 114 % of control and 110 % of control | endpoint: mean survival time, dose: 12.5 mg/kg/injection, schedule: Q01DX009 (ip), vehicle: saline 120 % of control and 110 % of control | [10] 118 % of control and 121 % of control | [11] 119 % of control | [12] 113 % of control and 100 % of control

CCN(CC)C(=O)c1cc[n+](Cc2ccc(Cl)cc2)cc1
inactive: endpoint: mean survival time, dose: 100.0 mg/kg/injection, schedule: Q04DX003 (ip), vehicle: saline 106 % of control | endpoint: mean survival time, dose: 200.0 mg/kg/injection, schedule: Q04DX003 (ip), vehicle: saline 103 % of control

Nc1nc(N)c(-c2ccc(Cl)c(Cl)c2)c(CP(Cl)(Cl)(Cl)Br)n1
inactive: endpoint: mean survival time, dose: 12.5 mg/kg/injection, schedule: Q01DX009 (ip), vehicle: Klucel (hydroxypropylcellulose) (HPC) 100 % of control | endpoint: mean survival time, dose: 25.0 mg/kg/injection, schedule: Q01DX009 (ip), vehicle: Klucel (hydroxypropylcellulose) (HPC) 94 % of control | endpoint: mean survival time, dose: 50.0 mg/kg/injection, schedule: Q01DX009 (ip), vehicle: Klucel (hydroxypropylcellulose) (HPC) 102 % of control | [7] 98 % of control | endpoint: mean survival time, dose: 100.0 mg/kg/injection, schedule: Q01DX009 (ip), vehicle: Klucel (hydroxypropylcellulose) (HPC) 88 % of control | endpoint: mean survival time, dose: 100.0 mg/kg/injection, schedule: Q04DX002 (ip), vehicle: saline with Tween-80 94 % of control | [4] 95 % of control | [8] 90 % of control | endpoint: mean survival time, dose: 200.0 mg/kg/injection, schedule: Q04DX002 (ip), vehicle: saline with Tween-80 107 % of control | [5] 100 % of control | [9] 105 % of control | endpoint: mean survival time, dose: 400.0 mg/kg/injection, schedule: Q04DX002 (ip), vehicle: saline with Tween-80 100 % of control
active: endpoint: mean survival time, dose: 50.0 mg/kg/injection, schedule: Q01DX009 (ip), vehicle: saline with Tween-80 160 % of control

Nc1nnnc2c1ncn2C1OC(CO)C(O)C1O (stereo not given)
inactive: endpoint: mean survival time, dose: 300.0 mg/kg/injection, schedule: Q01DX001 (ip), vehicle: saline 121 % of control

Cc1cc(C)nc(N)n1
inactive: [4] 95 % of control | [5] 98 % of control | [6] 98 % of control
